T1: TbKKT19 (Trypanosoma brucei, UniProt Q382T9)
T1 construct: gene Tb11.01.4250; recombinant His-tagged, full-length TbKKT19
T1 sequence (Q382T9 1-484): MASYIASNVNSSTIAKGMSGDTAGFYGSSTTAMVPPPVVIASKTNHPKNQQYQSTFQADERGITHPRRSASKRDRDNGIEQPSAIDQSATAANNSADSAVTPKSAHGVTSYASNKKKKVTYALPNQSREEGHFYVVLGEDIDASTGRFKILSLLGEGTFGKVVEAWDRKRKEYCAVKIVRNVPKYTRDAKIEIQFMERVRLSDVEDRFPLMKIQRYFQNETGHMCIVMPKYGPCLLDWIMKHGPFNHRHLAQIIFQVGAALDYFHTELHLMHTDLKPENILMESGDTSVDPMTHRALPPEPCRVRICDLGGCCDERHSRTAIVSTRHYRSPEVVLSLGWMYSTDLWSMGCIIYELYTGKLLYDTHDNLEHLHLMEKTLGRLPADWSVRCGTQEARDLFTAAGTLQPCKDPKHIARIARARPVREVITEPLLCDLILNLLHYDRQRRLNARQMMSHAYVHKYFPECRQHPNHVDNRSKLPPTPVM


Experiments:
TbKKT19 [1] = target: T1, TbKKT19; assay: ADP Hunter Plus kinase assay, 10-point IC50, with technology counterscreen; repurchased and reconfirmed; type: biochemical
TbKKT19 [2] = target: T1, TbKKT19; assay: ADP Hunter Plus kinase assay, KKL peptide, […] ATP; potency shift at […] ATP; type: biochemical
purified protein = substrate: Nc1ncnc2c1ncn2[C@@H]1O[C@H](COP(=O)(O)OP(=O)(O)OP(=O)(O)O)[C@@H](O)[C@H]1O; assay: purified protein; type: biochemical, Trypanosoma brucei; conditions: ATP binding site

| IC50 (TbKKT19 [1]) | Molecule | IC50 (TbKKT19 [2]) | further results |
| --- | --- | --- | --- |
| 18.9 µM | CCN(Cc1ccc(/C=C2/C(=O)Nc3ccccc32)o1)S(C)(=O)=O [compound 1] |  |  |
| 14.9 µM | O=C(Nc1ccc2cn[nH]c2c1)c1c(Cl)cccc1Cl [compound 2] |  |  |
|  | COc1cc(O)c2c(c1)[C@H]1O[C@@H]1C[C@H](O)[C@H](O)C(=O)/C=C\C[C@H](C)OC2=O [hypothemycin] | 0.065 µM |  |
|  | CN[C@@H]1C[C@H]2O[C@@](C)([C@@H]1OC)n1c3ccccc3c3c4c(c5c6ccccc6n2c5c31)C(=O)NC4 [staurosporine] | 0.288 µM |  |
|  | TbKKT19 (Trypanosoma brucei brucei TREU927) (protein, recombinant His-tagged, full-length TbKKT19) MASYIASNVNSSTIAKGMSGDTAGFYGSSTTAMVPPPVVIASKTNHPKNQQYQSTFQADERGITHPRRSASKRDRDNGIEQPSAIDQSATAANNSADSAVTPKSAHGVTSYASNKKKKVTYALPNQSREEGHFYVVLGEDIDASTGRFKILSLLGEGTFGKVVEAWDRKRKEYCAVKIVRNVPKYTRDAKIEIQFMERVRLSDVEDRFPLMKIQRYFQNETGHMCIVMPKYGPCLLDWIMKHGPFNHRHLAQIIFQVGAALDYFHTELHLMHTDLKPENILMESGDTSVDPMTHRALPPEPCRVRICDLGGCCDERHSRTAIVSTRHYRSPEVVLSLGWMYSTDLWSMGCIIYELYTGKLLYDTHDNLEHLHLMEKTLGRLPADWSVRCGTQEARDLFTAAGTLQPCKDPKHIARIARARPVREVITEPLLCDLILNLLHYDRQRRLNARQMMSHAYVHKYFPECRQHPNHVDNRSKLPPTPVM |  | Km (purified protein): 102 µM |
